Measured values: ChEMBL document CHEMBL4732170, “Discovery of Small-Molecule Antagonists of the PWWP Domain of NSD2” (J Med Chem, 2021)
Activity calls are given as the source filed them.

How the values were obtained:
[1] = target: T1, Histone-lysine N-methyltransferase NSD3 (Homo sapiens) (UniProt Q9BZ95); experiment: Binding affinity to NSD3 PWWP1 domain (unknown origin) assessed as aggregation temperature at 400 uM by heating at 25 to 85 degC by differential static light scattering method
T1 sequence (whole entry): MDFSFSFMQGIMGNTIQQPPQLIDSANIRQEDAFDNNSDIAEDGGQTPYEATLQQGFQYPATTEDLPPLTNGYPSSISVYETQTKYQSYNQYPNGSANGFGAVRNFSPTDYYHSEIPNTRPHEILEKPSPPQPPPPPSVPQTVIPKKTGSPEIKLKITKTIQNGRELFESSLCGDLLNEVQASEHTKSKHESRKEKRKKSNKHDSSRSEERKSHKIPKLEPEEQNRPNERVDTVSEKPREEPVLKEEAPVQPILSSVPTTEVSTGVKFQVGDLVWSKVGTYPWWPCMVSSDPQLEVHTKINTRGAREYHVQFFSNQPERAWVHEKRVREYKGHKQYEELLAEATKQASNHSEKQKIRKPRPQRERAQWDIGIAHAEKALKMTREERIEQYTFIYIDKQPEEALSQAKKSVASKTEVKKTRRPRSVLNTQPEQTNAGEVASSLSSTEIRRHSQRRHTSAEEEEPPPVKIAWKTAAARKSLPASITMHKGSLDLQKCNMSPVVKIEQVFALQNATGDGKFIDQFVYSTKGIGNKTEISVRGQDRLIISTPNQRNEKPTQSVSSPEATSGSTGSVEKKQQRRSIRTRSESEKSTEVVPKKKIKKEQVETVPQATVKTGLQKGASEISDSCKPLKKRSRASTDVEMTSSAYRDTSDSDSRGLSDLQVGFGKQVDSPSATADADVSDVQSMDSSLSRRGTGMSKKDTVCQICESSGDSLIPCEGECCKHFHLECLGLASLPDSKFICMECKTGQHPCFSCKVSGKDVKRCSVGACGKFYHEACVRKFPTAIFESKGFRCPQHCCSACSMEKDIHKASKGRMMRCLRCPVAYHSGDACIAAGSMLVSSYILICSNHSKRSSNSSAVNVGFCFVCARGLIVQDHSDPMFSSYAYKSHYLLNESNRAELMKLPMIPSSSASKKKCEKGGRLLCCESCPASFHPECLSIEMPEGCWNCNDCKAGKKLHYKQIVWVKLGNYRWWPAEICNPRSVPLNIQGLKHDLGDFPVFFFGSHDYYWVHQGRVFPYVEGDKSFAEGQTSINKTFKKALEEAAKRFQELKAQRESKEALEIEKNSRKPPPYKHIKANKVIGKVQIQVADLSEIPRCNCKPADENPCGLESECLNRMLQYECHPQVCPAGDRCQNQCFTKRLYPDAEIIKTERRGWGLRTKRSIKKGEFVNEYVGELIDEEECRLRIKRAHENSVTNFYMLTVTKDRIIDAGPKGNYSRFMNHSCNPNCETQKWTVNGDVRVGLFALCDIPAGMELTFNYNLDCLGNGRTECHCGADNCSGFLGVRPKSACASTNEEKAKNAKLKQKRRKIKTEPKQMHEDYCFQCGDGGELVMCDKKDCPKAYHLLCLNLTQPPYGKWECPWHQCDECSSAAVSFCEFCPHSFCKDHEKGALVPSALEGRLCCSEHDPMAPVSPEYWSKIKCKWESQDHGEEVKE

[2] = target: T2, Zinc finger MYND domain-containing protein 11 (Homo sapiens) (UniProt Q15326); experiment: Binding affinity to ZMYND11 PWWP1 domain (unknown origin) assessed as aggregation temperature at 400 uM by heating at 25 to 85 degC by differential static light scattering method
T2 sequence (whole entry): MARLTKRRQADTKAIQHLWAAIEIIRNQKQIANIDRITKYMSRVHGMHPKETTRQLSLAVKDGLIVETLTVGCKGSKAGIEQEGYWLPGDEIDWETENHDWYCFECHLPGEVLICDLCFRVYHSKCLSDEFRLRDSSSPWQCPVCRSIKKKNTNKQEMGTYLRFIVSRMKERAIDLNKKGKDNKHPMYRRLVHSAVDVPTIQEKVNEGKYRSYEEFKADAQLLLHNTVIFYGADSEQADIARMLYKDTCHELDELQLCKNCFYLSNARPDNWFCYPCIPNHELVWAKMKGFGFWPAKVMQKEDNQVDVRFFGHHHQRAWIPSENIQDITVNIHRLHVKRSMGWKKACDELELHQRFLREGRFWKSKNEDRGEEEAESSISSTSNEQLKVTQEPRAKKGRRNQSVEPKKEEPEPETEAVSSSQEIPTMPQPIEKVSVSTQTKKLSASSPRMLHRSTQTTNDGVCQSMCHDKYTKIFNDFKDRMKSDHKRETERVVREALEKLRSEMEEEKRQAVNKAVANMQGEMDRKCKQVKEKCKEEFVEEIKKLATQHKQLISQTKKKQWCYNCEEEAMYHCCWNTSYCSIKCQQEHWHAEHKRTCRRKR

[3] = target: T3, Zinc finger CW-type PWWP domain protein 1 (Homo sapiens) (UniProt Q9H0M4); experiment: Binding affinity to ZCWPW1 PWWP1 domain (unknown origin) assessed as aggregation temperature at 400 uM by heating at 25 to 85 degC by differential static light scattering method
T3 sequence (whole entry): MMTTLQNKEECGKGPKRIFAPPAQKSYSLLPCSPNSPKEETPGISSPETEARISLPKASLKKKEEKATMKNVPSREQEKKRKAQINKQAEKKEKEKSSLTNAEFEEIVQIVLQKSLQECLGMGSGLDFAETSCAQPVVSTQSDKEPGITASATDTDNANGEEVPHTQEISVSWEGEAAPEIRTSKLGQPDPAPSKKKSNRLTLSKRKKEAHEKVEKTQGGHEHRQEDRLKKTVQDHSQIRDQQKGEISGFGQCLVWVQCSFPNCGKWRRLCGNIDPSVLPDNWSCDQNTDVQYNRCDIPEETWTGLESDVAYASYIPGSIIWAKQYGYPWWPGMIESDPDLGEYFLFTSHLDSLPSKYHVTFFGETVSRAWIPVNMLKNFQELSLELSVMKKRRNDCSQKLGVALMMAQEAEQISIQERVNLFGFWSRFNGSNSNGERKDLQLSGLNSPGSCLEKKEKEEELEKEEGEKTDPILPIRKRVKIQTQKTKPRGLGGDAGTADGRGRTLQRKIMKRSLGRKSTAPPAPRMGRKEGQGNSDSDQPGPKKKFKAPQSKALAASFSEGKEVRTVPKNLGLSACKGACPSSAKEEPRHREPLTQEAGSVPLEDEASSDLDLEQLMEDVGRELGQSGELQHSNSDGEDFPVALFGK

Measured: Activity

N#Cc1ccc(C(C(N)=O)N2CCC2c2ccc(Cl)cc2)cc1 (stereo not drawn)
inactive: all assays above
